Measurements published in publication PMC10947113, “A Bivalent Activatable Fluorescent Probe for Screening and Intravital Imaging of Chemotherapy‐Induced Cancer Cell Death” (Angewandte Chemie (Weinheim an Der Bergstrasse, Germany), 2021).

Test system: breast cancer cells (MMTV-PyMT, MDA-MB231, MCF7)
Assay: Dose-dependency study in breast cancer cell lines
Assay type: cell-based, mouse and human
Protocol: First, all drugs were tested in the 8 different cell lines to determine the percentages of Apotracker Red‐stained apoptotic cells compared to no treatment (Figure 3 c; Figure S8). […] From this screen, we decided to select 5 drugs with potent pro‐apoptotic response in breast cancer, the most diagnosed cancer worldwide.[25] […] From group 2, we selected cyclophosphamide, tamoxifen, and 5‐fluorouracil as pro‐apoptotic molecules. […] All 5 drugs were tested at multiple concentrations (from 1 to 100 μM) and with incubation times up to 48 h to examine whether drugs could block cell proliferation at late stages (Figures S9–S13).
Figure 4 Apotracker Red detects dose‐dependent chemotherapeutic‐induced apoptosis in mouse and human breast cancer cell lines. Cells were plated with 1 μM CV, treated with increasing concentrations (0, 1, 3, 10, 30 and 100 μM) of selected drugs for 48 h, and stained with Apotracker Red (150 nM) before data acquisition. Drugs: tamoxifen (beige), cisplatin (black), 5‐fluorouracil (green), gemcitabine (pink) and cyclophosphamide (red). Data presented as mean±SEM of 3 independent experiments.
Edinburgh. Human peripheral blood neutrophils were isolated as previously described.[3] Briefly, whole blood was drawn into tubes containing anti -coagulant 3.6% sodium citrate (final concentration: 0.4% (w/v)) and centrifuged at 350 g for 20 min at r.t. with lowest acceleration and no brake. Platelet-rich plasma was rem oved, and leukocytes separated from erythrocytes by 0.6% dextran sedimentation in saline for 30 min at r.t. […]
were centrifuged (300 g, 5 min, r.t.), washed once with PBS before addition of 0.05% Trypsin, 0.02% ethylenediaminetetraacetic acid (EDTA) in Hank’s balanced salt solution (HBSS) and incubation at 37°C for 5 min. […] Histograms and mean fluorescence intensities of apoptotic cells were measured on a 5L LSR flow cytometer under the following excitation/emission filters: Apotracker Red (561/610 nm), Annexin V-AF647 (647 /670 nm).
Data were acquired using the FACS Diva software and analysed using the FlowJo X software. […]

`N.N.[Cl][Pt][Cl]` [cisplatin] was tested, and the “percentages of Apotracker Red staining across all breast cancer cells, dose-dependency study” value (1 to 100 μM, 48 h, Apotracker Red 150 nM, 3 independent experiments) was “highest percentages of Apotracker Red staining” and the “ratios of proliferation blockage, dose-dependency study” value (CellTrace Violet 1 μM, drugs 1 to 100 μM, up to 48 h) was “highest ratios of proliferation blockage”.
